# Measurements from publication PMC7077990 (eLife, 2020).
# Legend:
# [1] = biological target: T1, mitochondrial pyruvate carrier MPC (Mus musculus, UniProt P63030+Q9D023); assay: mitochondrial pyruvate uptake in intact astrocytes, mito-PyronicSF fluorescence; format: cell-based; settings: 3 mM extracellular pyruvate; KRH buffer pH 7.4; 22–25°C
# T1 construct: gene Mpc1; native carrier in intact cultured cortical astrocytes; read out as mitochondrial pyruvate uptake with mito-PyronicSF; subunit composition not determined
# T1 sequence (P63030 2-109): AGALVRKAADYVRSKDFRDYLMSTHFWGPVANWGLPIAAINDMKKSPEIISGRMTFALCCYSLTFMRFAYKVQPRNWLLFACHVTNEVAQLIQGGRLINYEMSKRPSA
# T1 sequence (Q9D023 1-127): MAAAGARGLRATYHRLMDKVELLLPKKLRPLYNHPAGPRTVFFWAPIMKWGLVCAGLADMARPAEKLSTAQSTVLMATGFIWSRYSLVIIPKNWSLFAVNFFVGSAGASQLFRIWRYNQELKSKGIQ
# [2] = biological target: T1, mitochondrial pyruvate carrier MPC; assay: as above; format: cell-based; settings: 3 mM extracellular pyruvate; KRH buffer pH 7.4; 22–25°C; remark: listed apart in the source
Compound,% uptake inhibition at 10 μM [1],% uptake inhibition at 30 μM [2]
N#C/C(=C\c1cn(-c2ccccc2)c2ccccc12)C(=O)O [UK-5099],69%,–
CN(CCOc1ccc(CC2SC(=O)NC2=O)cc1)c1ccccn1 (centres unmarked) [rosiglitazone],–,67%
